Results published in ChEMBL document CHEMBL4196089, “Design, synthesis, biological evaluation and in vivo testing of dual phosphodiesterase 5 (PDE5) and histone deacetylase 6 (HDAC6)-selective inhibitors for the treatment of Alzheimer's disease” (Eur J Med Chem, 2018).

Legend:
[1] = molecular target: Histone deacetylase 3/Nuclear receptor corepressor 2 (HDAC3/NCoR2) (Homo sapiens, UniProt O15379); test: Inhibition of full length human recombinant C-terminal His-tagged HDAC3/N-terminal GST-tagged NCOR2 (95 to 489 residues) expressed in baculovirus infected sf9 cells using fluorogenic HDAC substrate 3 after 30 mins by fluorescence assay
[2] = molecular target: T1, Protein deacetylase HDAC6 (Homo sapiens, UniProt Q9UBN7); test: Inhibition of full length human recombinant N-terminal GST-tagged HDAC6 expressed in baculovirus infected sf9 cells using fluorogenic HDAC substrate 3 after 30 mins by fluorescence assay
T1 sequence (Q9UBN7 whole entry): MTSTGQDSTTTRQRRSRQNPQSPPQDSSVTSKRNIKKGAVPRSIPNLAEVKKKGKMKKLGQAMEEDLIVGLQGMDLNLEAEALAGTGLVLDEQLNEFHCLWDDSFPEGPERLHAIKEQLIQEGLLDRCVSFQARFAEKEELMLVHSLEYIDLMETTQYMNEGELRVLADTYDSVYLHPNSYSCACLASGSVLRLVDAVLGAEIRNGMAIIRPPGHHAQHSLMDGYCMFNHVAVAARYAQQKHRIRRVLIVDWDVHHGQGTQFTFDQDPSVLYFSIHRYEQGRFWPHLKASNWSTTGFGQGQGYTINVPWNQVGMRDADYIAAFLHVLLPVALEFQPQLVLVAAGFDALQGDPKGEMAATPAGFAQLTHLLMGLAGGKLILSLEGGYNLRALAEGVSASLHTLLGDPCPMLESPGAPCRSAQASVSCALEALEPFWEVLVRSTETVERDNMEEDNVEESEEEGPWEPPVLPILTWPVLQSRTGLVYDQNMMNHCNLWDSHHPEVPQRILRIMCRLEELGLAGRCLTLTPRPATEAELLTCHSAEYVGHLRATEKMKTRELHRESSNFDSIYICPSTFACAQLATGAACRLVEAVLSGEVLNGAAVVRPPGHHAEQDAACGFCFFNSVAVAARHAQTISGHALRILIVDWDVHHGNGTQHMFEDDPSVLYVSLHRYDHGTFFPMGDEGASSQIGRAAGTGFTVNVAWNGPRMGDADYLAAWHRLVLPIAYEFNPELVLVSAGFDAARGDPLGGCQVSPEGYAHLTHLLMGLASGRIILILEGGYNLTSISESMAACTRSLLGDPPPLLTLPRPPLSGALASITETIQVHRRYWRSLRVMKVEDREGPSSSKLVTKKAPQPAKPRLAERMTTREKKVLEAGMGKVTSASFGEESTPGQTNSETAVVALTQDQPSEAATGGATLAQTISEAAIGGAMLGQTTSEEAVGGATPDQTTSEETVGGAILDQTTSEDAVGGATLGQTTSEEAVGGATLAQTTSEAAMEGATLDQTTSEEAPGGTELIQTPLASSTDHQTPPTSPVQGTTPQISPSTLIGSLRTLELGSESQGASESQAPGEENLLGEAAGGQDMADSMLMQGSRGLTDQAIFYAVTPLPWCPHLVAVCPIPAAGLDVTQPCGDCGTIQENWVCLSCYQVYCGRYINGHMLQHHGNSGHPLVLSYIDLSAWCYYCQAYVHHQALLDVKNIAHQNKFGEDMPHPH

[3] = Effective permeability of the compound at 50 uM after 18 hrs by UV spectroscopy based PAMPA; type: ADME; details: read-out: Peff
[4] = molecular target: T2, Histone deacetylase 1 (Homo sapiens, UniProt Q13547); test: Inhibition of full length human recombinant C-terminal FLAG/His-tagged HDAC1 expressed in baculovirus infected sf9 cells using fluorogenic HDAC substrate 3 after 30 mins by fluorescence assay
[5] = cells; details: Homo sapiens, SH-SY5Y, 2 h, read-out: FC
[6] = molecular target: T3, cGMP-specific 3',5'-cyclic phosphodiesterase (Homo sapiens, UniProt O76074); test: Inhibition of full length human recombinant N-terminal GST-tagged PDE5A1 expressed in baculovirus infected sf9 cells using cGMP as substrate after 30 mins by fluorescence assay
[7] = cells; details: Homo sapiens, SH-SY5Y, 2 h, read-out: FC; remark: listed apart in the source
[8] = molecular target: T4, Histone deacetylase 2 (Homo sapiens, UniProt Q92769); test: Inhibition of full length human recombinant C-terminal His-tagged HDAC2 expressed in baculovirus infected sf9 cells using fluorogenic HDAC substrate 3 after 30 mins by fluorescence assay
[9] = Cytotoxicity against human THLE2 cells after 72 hrs by vialight cell proliferation assay; type: cell-based, THLE-2; details: read-out: LC50
[10] = cells; details: Homo sapiens, SH-SY5Y, 2 h, read-out: FC; remark: listed apart in the source
[11] = molecular target: T3, cGMP-specific 3',5'-cyclic phosphodiesterase; test: Inhibition of PDE5A (unknown origin)
[12] = molecular target: T2, Histone deacetylase 1; test: Inhibition of HDAC1 (unknown origin)
[13] = molecular target: T4, Histone deacetylase 2; type: ADME
[14] = molecular target: T1, Protein deacetylase HDAC6; test: Inhibition of HDAC6 (unknown origin)
[15] = molecular target: Histone deacetylase 3 (Homo sapiens, UniProt O15379); test: Inhibition of HDAC3 (unknown origin)
[16] = molecular target: cGMP-inhibited 3',5'-cyclic phosphodiesterase 3A (Homo sapiens, UniProt Q14432); test: Inhibition of PDE3A (unknown origin) using FAM-cGMP as substrate by fluorescence assay
[17] = Inhibition of class-1 HDAC in human SH-SY5Y cells assessed as induction of AcH3K9 level at 500 nM after 0.5 to 2 hrs by Western blot analysis; type: cell-based; details: 0.5 µM

Chain of Histone deacetylase 3/Nuclear receptor corepressor 2 (HDAC3/NCoR2) (O15379 whole entry, the tested form may be a part): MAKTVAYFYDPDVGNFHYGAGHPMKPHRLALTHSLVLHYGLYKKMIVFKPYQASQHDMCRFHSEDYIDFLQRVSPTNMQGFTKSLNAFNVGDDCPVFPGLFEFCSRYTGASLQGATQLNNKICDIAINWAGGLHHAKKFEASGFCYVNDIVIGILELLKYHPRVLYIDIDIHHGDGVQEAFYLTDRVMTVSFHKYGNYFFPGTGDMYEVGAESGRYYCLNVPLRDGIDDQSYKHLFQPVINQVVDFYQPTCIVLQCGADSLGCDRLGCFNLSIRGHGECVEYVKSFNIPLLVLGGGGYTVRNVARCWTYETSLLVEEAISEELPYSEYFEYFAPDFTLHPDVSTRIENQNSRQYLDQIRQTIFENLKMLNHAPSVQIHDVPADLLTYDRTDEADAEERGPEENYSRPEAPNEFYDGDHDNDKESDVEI
Chain of Histone deacetylase 3/Nuclear receptor corepressor 2 (HDAC3/NCoR2) (Q9Y618 whole entry, further chain, the tested form may be a part): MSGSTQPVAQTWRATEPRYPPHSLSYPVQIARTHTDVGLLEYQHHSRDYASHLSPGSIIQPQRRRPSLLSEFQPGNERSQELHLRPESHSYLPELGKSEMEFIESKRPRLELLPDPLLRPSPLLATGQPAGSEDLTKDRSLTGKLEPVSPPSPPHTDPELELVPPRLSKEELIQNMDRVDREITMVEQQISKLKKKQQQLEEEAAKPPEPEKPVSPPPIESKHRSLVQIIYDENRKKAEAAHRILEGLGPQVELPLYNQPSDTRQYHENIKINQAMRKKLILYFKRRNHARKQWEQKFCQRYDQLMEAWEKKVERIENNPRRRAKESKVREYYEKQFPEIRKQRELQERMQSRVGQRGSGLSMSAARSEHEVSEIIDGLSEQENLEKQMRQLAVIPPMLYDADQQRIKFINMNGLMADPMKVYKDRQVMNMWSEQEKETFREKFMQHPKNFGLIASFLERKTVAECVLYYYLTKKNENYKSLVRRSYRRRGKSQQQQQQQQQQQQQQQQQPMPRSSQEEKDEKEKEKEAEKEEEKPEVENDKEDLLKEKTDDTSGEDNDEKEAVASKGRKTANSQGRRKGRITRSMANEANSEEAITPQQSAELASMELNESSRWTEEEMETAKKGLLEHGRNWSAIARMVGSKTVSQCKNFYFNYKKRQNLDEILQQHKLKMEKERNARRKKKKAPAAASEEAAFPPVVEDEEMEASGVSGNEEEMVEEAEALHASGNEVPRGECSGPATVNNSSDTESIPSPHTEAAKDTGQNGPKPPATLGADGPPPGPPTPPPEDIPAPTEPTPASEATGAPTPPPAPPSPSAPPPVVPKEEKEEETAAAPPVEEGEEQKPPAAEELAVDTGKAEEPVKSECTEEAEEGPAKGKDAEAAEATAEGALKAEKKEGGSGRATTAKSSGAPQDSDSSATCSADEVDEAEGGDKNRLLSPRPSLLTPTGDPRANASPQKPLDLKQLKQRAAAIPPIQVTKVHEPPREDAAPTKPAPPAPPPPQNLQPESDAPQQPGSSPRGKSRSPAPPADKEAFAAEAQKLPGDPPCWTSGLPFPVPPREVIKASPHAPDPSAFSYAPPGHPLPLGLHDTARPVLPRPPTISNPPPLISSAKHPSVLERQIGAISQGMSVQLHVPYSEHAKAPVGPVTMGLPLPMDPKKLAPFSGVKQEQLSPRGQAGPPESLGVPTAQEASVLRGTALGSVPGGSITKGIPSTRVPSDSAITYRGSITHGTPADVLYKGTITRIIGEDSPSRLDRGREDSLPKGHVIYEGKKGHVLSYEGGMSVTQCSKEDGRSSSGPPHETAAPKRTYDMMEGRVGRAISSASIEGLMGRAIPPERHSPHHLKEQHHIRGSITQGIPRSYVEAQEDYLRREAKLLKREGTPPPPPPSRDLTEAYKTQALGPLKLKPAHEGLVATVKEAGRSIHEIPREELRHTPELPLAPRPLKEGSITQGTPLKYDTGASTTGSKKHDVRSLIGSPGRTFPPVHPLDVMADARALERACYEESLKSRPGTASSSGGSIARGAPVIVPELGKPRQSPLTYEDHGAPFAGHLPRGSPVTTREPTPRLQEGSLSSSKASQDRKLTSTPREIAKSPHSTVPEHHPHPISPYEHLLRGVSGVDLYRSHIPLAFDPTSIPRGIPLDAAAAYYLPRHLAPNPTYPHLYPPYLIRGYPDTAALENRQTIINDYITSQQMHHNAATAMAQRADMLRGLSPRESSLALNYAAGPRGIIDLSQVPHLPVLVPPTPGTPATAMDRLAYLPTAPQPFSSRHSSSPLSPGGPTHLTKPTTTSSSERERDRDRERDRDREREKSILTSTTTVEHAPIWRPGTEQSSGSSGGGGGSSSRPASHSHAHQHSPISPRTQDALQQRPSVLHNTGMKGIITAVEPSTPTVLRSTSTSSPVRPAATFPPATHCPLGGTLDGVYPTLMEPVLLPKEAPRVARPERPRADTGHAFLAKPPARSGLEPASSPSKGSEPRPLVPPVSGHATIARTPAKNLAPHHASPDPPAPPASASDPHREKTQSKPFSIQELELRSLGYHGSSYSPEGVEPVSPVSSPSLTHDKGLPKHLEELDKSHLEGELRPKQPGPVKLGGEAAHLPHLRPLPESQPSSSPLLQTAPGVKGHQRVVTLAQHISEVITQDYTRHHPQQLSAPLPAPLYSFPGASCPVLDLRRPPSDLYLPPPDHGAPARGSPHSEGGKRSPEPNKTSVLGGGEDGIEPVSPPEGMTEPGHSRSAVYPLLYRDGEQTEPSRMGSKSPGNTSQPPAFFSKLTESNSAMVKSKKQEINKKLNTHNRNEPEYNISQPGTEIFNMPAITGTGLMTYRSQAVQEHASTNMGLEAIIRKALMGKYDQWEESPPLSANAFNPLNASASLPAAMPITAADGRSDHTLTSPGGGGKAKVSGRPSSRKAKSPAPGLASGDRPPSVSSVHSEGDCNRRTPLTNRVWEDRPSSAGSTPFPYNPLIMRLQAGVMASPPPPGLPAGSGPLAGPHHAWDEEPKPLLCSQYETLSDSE
T2 sequence (Q13547 whole entry): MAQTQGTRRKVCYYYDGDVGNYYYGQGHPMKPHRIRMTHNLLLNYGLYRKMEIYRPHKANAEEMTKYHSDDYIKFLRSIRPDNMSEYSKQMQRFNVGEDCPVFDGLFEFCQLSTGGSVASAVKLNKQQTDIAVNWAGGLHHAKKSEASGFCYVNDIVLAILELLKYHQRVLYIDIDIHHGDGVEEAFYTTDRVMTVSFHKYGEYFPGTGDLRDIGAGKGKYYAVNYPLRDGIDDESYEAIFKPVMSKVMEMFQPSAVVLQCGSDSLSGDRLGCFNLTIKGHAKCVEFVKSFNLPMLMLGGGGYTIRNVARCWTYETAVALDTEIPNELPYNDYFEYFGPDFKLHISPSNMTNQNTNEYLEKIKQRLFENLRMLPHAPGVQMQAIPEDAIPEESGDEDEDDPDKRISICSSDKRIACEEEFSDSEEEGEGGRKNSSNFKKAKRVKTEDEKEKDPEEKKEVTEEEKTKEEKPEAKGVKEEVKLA
T4 sequence (Q92769 whole entry): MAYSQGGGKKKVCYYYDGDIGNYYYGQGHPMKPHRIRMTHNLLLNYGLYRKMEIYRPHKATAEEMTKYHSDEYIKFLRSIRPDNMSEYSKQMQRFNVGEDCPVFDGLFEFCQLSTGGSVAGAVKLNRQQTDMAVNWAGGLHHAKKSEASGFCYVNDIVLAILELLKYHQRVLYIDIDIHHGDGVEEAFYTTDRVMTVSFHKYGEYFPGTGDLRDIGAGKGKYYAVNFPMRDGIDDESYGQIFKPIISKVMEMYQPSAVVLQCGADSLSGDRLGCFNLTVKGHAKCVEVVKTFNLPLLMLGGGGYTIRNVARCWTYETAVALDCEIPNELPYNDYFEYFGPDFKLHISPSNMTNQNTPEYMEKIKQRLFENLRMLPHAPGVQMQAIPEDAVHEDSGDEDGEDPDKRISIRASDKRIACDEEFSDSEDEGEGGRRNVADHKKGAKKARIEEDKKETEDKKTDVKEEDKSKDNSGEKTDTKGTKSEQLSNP
Chain of Histone deacetylase 3 (O15379 whole entry): as the sequence (O15379 whole entry, the tested form may be a part) above
Chain of cGMP-inhibited 3',5'-cyclic phosphodiesterase 3A (Q14432 whole entry): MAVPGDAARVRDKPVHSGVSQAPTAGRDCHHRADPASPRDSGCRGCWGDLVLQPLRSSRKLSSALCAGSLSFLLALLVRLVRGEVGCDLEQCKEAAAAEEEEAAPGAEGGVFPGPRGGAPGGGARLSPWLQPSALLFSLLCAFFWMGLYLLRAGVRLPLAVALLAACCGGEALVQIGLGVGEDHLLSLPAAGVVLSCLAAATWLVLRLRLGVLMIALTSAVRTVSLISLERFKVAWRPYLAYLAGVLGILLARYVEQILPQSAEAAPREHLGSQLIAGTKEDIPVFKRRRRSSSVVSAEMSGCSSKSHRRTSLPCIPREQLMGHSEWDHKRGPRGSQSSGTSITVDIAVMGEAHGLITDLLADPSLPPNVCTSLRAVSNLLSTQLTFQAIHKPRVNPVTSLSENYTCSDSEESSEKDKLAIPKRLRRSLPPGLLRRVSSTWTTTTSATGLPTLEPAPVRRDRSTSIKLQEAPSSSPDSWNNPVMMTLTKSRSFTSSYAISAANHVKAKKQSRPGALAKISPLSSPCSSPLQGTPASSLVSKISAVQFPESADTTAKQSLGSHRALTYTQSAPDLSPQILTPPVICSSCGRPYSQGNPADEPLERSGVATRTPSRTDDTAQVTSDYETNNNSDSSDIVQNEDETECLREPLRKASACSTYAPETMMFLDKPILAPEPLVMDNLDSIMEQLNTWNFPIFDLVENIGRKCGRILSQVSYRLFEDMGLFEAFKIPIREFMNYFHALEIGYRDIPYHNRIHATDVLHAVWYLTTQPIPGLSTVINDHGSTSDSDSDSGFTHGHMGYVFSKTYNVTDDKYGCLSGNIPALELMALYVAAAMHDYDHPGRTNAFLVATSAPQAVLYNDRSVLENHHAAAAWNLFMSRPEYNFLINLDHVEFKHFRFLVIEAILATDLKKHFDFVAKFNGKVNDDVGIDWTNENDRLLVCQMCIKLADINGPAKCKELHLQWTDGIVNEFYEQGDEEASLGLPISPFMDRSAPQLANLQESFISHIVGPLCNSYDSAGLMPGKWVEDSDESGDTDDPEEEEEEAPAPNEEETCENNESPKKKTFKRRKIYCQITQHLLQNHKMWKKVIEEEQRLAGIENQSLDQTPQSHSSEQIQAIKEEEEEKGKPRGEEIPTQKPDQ

IC50 [2]	IC50 [4]	IC50 [6]	IC50 [8]	Compound	Papp at 18 h, 50 µM [3]	fold induction at 1 µM [5]	fold induction at 0.1 µM [7]	CC50 at 72 h [9]	fold induction at 0.5 µM [10]	other results
168 nM	2230 nM	3 nM	17500 nM	CCCc1nn(C)c2c(=O)[nH]c(-c3cc(Cc4ccc(C(=O)NO)o4)ccc3OCC)nc12						IC50 [1]: > 20000 nM
				CCCc1nc(C)c2c(=O)[nH]c(-c3cc(CC4CC(C(=O)NO)C4)ccc3OCC)nn12 (centres undefined)						IC50 [11]: 5 nM; IC50 [12]: 286 nM; IC50 [13]: 1260 nM; IC50 [14]: 110 nM; IC50 [15]: 854 nM
> 20000 nM	> 20000 nM	47 nM	> 20000 nM	CCCc1nn(C)c2c(=O)[nH]c(-c3cc(Cc4ccc(C(=O)NO)cc4OC)ccc3OCC)nc12						
66 nM	490 nM	2 nM	> 20000 nM	CCCc1nn(C)c2c(=O)[nH]c(-c3cc(Nc4ccc(C(=O)NO)cc4)ccc3OCC)nc12						
1180 nM	7200 nM	36 nM	> 20000 nM	CCCc1nn(C)c2c(=O)[nH]c(-c3cc(N4CCC(C(=O)NO)CC4)ccc3OCC)nc12						
340 nM	2880 nM	27 nM	> 20000 nM	CCCc1nn(C)c2c(=O)[nH]c(-c3cc(C4=CCC(C(=O)NO)CC4)ccc3OCC)nc12 (centres undefined)						
3110 nM	8380 nM	146 nM	> 20000 nM	CCCc1nn(C)c2c(=O)[nH]c(-c3cc(C4CCC(C(=O)NO)CC4)ccc3OCC)nc12 (centres undefined)						
77 nM	357 nM	20 nM	1110 nM	CCCc1nn(C)c2c(=O)[nH]c(-c3cc(C(OC)c4ccc(C(=O)NO)cc4)ccc3OCC)nc12 (centres undefined)						
				CCCc1nn(C)c2c(=O)[nH]c(-c3cc(CC4CC(C(=O)NO)C4)ccc3OCC)nc12 (centres undefined)						IC50 [16]: 1800 nM
33 nM	1080 nM	79 nM	11400 nM	CCCc1nn(C)c2c(=O)[nH]c(-c3cc(OCc4ccc(C(=O)NO)cc4)ccc3OCC)nc12						
89 nM	335 nM	10 nM	1110 nM	CCCc1nn(C)c2c(=O)[nH]c(-c3cc(C(O)c4ccc(C(=O)NO)cc4)ccc3OCC)nc12 (centres undefined)						
				CN1CCc2c(c3ccccc3n2Cc2ccc(C(=O)NO)cc2)C1 [TUBASTATIN A]	1.77 ×10⁻⁶ cm/s			[…]		inhibition (INH) [17]: Not Active
				CCCc1nc(C)c2c(=O)[nH]c(-c3cc(S(=O)(=O)N4CCN(CC)CC4)ccc3OCC)nn12	2.14 ×10⁻⁶ cm/s			> 100000 nM		
217 nM	1810 nM	14 nM	> 20000 nM	CCCc1nn(C)c2c(=O)[nH]c(-c3cc(C4=CCC(CC(=O)NO)CC4)ccc3OCC)nc12 (centres undefined)						
> 20000 nM	> 20000 nM	144 nM	> 20000 nM	CCCc1nn(C)c2c(=O)[nH]c(-c3cc(Cc4ccc(C(=O)NO)c(OC)c4)ccc3OCC)nc12						
5440 nM	10200 nM	190 nM	> 20000 nM	CCCc1nn(C)c2c(=O)[nH]c(-c3cc([C@H]4CC[C@H](C(=O)NO)CC4)ccc3OCC)nc12						
192 nM	276 nM	3 nM	799 nM	CCCc1nn(C)c2c(=O)[nH]c(-c3cc(C(=O)c4ccc(C(=O)NO)s4)ccc3OCC)nc12						
				CCCc1nn(C)c2c(=O)[nH]c(-c3cc(S(=O)(=O)N4CCN(C)CC4)ccc3OCC)nc12				> 100000 nM		

Compound	IC50 [2]	IC50 [4]	IC50 [6]	IC50 [8]	Papp at 18 h, 50 µM [3]	fold induction at 1 µM [5]	fold induction at 0.1 µM [7]	CC50 at 72 h [9]	fold induction at 0.5 µM [10]	other results
CCCc1nn(C)c2c(=O)[nH]c(-c3cc(Cc4ccc(C(=O)NO)cc4)ccc3OCC)nc12	62 nM	673 nM	48 nM	3860 nM	2.16 ×10⁻⁶ cm/s	6.5	1.1	14200 nM	3.2	IC50 [1]: 1350 nM
CCCc1nn(C)c2c(=O)[nH]c(-c3cc(-c4ccc(C(=O)NO)s4)ccc3OCC)nc12	37 nM	387 nM	7 nM	4800 nM	2.82 ×10⁻⁶ cm/s	2.7	1.1	2180 nM	2.5	
CCCc1nc(C)c2c(=O)[nH]c(-c3cc(Cc4ccc(C(=O)NO)s4)ccc3OCC)nn12	98 nM	793 nM	3 nM	4390 nM	1.6 ×10⁻⁶ cm/s	0.8	0.7	6940 nM	0.9	
CCCc1nn(C)c2c(=O)[nH]c(-c3cc(-c4ccc(C(=O)NO)cc4)ccc3OCC)nc12	42 nM	326 nM	1 nM	2550 nM	2.68 ×10⁻⁶ cm/s	3.6	0.8	8830 nM	1.7	
CCCc1nn(C)c2c(=O)[nH]c(-c3cc([C@H]4CC[C@@H](C(=O)NO)CC4)ccc3OCC)nc12	48 nM	937 nM	53 nM	> 20000 nM	1.68 ×10⁻⁶ cm/s	5.4	0.7	16000 nM	1.8	
CCCc1nc(C)c2c(=O)[nH]c(-c3cc(Cc4ccc(C(=O)NO)cc4)ccc3OCC)nn12	256 nM	1830 nM	13 nM	5190 nM	1.86 ×10⁻⁶ cm/s	1.3	0.4	26700 nM	0.9	
CCCc1nn(C)c2c(=O)[nH]c(-c3cc(Cc4ccc(C(=O)NO)c(F)c4)ccc3OCC)nc12	142 nM	1110 nM	31 nM	> 20000 nM	2.84 ×10⁻⁶ cm/s	1.4	2	3510 nM	2.7	
CCCc1nn(C)c2c(=O)[nH]c(-c3cc(Cc4ccc(C(=O)NO)cc4F)ccc3OCC)nc12	87 nM	2030 nM	149 nM	14600 nM	3.7 ×10⁻⁶ cm/s	1.6	0.9	16500 nM	1.1	
CCCc1nn(C)c2c(=O)[nH]c(-c3cc(-c4ccc(CC(=O)NO)cc4)ccc3OCC)nc12	815 nM	> 20000 nM	10 nM	> 20000 nM	1.97 ×10⁻⁶ cm/s	1.2	0.6	15400 nM	0.8	
CCCc1nn(C)c2c(=O)[nH]c(-c3cc(Cc4ccc(CC(=O)NO)cc4)ccc3OCC)nc12	162 nM	> 20000 nM	15 nM	> 20000 nM	2.94 ×10⁻⁶ cm/s			5490 nM		IC50 [1]: > 20000 nM
